Test results taken from publication PMC7595212, “Functional interaction between Ghrelin and GLP-1 regulates feeding through the vagal afferent system” (Scientific Reports, 2020).

Assays:
mice = test: Feeding experiments in mice (1-h food intake); type: in vivo, mouse; conditions: for food intake, GLP-1 preadministration before ghrelin: GLP-1 3 nmol i.p. 30 min before ghrelin 1.5 nmol i.p., n = 8
rats = test: Feeding experiments in rats (1-h food intake); type: in vivo, rat; conditions: GLP-1 3 nmol i.v.
Description: First, rats fasted for 8 h (02:00–10:00) received an i.v. injection of human GLP-1 (3 nmol/100 µl saline, CS Bio) or saline at 10:00, then they were administered human ghrelin (1.5 nmol/100 µl saline, Peptide Institute) or saline injection at 10:30. Food intake was determined from 10:30 to 11:30. Secondly, rats fed ad libitum received an i.v. ghrelin (1.5 nmol/100 µl) or saline injection at 10:00 or 19:30, then they were administered GLP-1 (3 nmol/100 µl) or saline injection at 10:30 or 20:00. Food intake was measured from 10:30 to 11:30 or 20:00 to 21:00. Thirdly, mice fasted for 8 h (02:00–10:00) received an i.p. injection of ghrelin (1.5 nmol/100 µl saline) or saline at 10:00, then they were administered human GLP-1 (3 nmol/100 µl saline) or saline at 10:30 and 1 h food intake (10:30–11:30) was measured. Fourthly, Ghsr^−/− and their wild-type mice fasted for 12 h (22:00–10:00) were administered ghrelin (1.5 nmol/50 µl saline, i.p.) at 10:00, then they were administered GLP-1 (3 nmol/50 µl saline, i.p.) or saline injection at 10:30, and food intake was measured from 10:30 to 11:30. Finally, Glp1r ^−/− and their wild-type mice were administered GLP-1 (3 nmol/50 µl, i.p.) or saline at 10:00, subsequently given a ghrelin (1.5 nmol/50 µl, i.p.) or saline injection at 10:30, food intake was measured from 10:30 to 11:30. […]

[1] = test system: Fos expression in NG, NTS and ARC neurons; test: Fos immunohistochemical staining (NG, NTS, ARC); type: in vivo, mouse; conditions: mice
Description: The NG and brain were removed, fixed overnight in a fixative solution containing 4% PFA, cryoprotected in 0.1 M PB containing 20% sucrose and embedded in Tissue-Tek O.C.T. compound. The 10 µm sections were mounted on slides permeabilized with 0.3% triton X-100 in PBS (PBS-T). After permeabilization, antigens were retrieved by heating the sections in an autoclave for 1 h at 70 °C with a Histo VT one (Nakalai Teaque, Kyoto, Japan). All sections were blocked with 5% goat-serum in PBS-T. Three specimens each of NG, NTS and ARC were incubated for 48 h at 4 °C with c-Fos antiserum (Supplementary Table S1), then incubated for 1 h with Alexa Fluor 488- (NTS and ARC) or 594- (NG) conjugated anti-rabbit IgG at room temperature (Supplementary Table S1). To stain nuclei of the neurons, the specimens from NG were incubated with Alexa Fluor 488-conjugated Anti-NeuN IgG (Supplementary Table S1) at RT for 1 h, and the specimens from NTS and ARC were incubated overnight with Alexa Fluor 555-conjugated anti-NeuN IgG (Supplementary Table S1) at 4 °C. Images of immunofluorescence staining were observed using a Nikon C2 + confocal laser scanning microscope (Nikon, Tokyo, Japan). Fos-positive neurons in three specimens from each animal were counted using ImageJ.

NG neurons [2] = test: Calcium response in single neurons isolated from NG (Fura-2); type: cell-based, mouse
Description: Bilateral NGs resected from mice were immersed in hibernateA media (BrainBits). Each ganglion was cut into five pieces, placed in HibernateA minus Ca^2+ media (BrainBits) containing 1 mg/ml collagenase/dispase (Roche Diagnostics) and incubated for 90 min at 37 °C. Neurons were dispersed by gentle titration through pipettes and they were washed three times with fresh NbActive4 media (BrainBits) and plated onto poly-D-lysine/laminin (BD Bioscience)-coated coverslips, followed by incubation (5% CO2 in air at 37 °C) for 24 h. Cultures were rinsed in 10 mM phosphate buffered saline (PBS) and fixed with 4% paraformaldehyde (PFA) in phosphate buffer (PB). Ganglion neurons were incubated with the first primary antibodies; anti-GLP-1R or anti-GHSR at 4 °C overnight, and then with the second primary antibodies; anti-GHSR or anti-Pan Neuronal Marker (Supplementary Table S1) at 4 °C overnight. They were then reacted with corresponding Alexa Fluor 488- or 594-conjugated secondary IgG (Supplementary Table S1) at RT for 1 h. Neurons were observed under a fluorescence microscope (Olympus).
Ca^2+ imaging was performed under continuous perfusion of NG neurons with Krebs–Ringer-Henseleit buffer (Composition in mmol L^−1: NaCl 119, KCl 4.74, CaCl2 2.54, MgCl2 1.19, KH2PO4 1.19, NaHCO3 25, HEPES 10, pH 7.4) at a flow rate of 600 μl/min at 37 °C. NG neurons were loaded with 1 µM Fura-2 acetoxymethyl ester (Dojindo Labs) in NbActive4 media at 37 °C for 30 min. For Ca^2+ measurements in an integrated fluorescence microscope (Keyence BZ-X700), images were captured at 10-s intervals; 340- and 380-nm excitation filters were used for Fura-2-AM dual-wavelength excitation ratio imaging. NG neurons were stimulated with 10 nM either ghrelin or GLP-1, and 10 min later stimulated with the other peptide. At the end of experiments, cells were exposed to 100 mM KCl (Nacalai Tesque) for 2 min. […] All data were expressed as percent changes from the average of the 340/380 fluorescence ratio in response to ghrelin or GLP-1.
All neurons collected in retrograde tracing studies and used to assess calcium response and patch-clamp recording were picked up by the UnipicK + system (NeuroInDx) immediately after each measurement. RNA was isolated from single neurons with PicoPure RNA Isolation Kit (Applied Biosystems). qRT-PCR (primer sets, Supplementary Table S2) was conducted with SYBR Premix Ex Taq (2 ×) (Takara Bio Inc.) on a Thermal Cycler Dice Real-Time System II (Takara Bio Inc.). In the retrograde tracer studies, percentage of stomach-innervating NG neurons expressing Ghsr or Glp1r were analysed. In the patch-clamp recording, only Ghsr^+ Glp1r^+ neuron cells were used for the final analysis.

gastric vagal afferent = test: Multi-unit nerve discharge of the gastric vagal afferent; type: in vivo, rat; conditions: anaesthetised rats, i.v., n = 3
Description: Multi-unit neural discharge in gastric vagal afferent fibres was recorded extracellularly. Rats were anesthetised by an i.p. injection of urethane (1 g/kg) (Sigma-Aldrich). The electrophysiological study was performed entirely under anaesthetisation as described previously. After the gastric branch of the vagal nerve was visualised, we placed filaments isolated from the peripheral cut end of the ventral branch for the recording of afferent nerve activity via a pair of silver wire electrodes connected through an alternating current-coupled differential amplifier (ER-1; Cygnus Technology) to PowerLab (AD Instruments). The nerve activities were recorded and analysed using LabChart v8 software (AD Instruments). […] After the first administration, nerve discharges from the multi-unit afferents were analysed for 60 min.

[3] = Pharmacokinetics analysis: plasma profiles of ghrelin and GLP-1 in rats; conditions: i.v. into femoral vein, peptide administered first (GLP-1 3 nmol, ghrelin 1.5 nmol), GLP-1 by active ELISA, ghrelin by enzyme immunoassay
Description: Blood was withdrawn from the right jugular vein at: 1, 2.5, 5, 10, 20, 30, 32.5, 35, 40, 50, and 60 min after the first injection. Blood was collected into tubes containing 1.25 mg EDTA and aprotinin (500 kallikrein-inhibiting units/ml blood) (Wako Pure Chemical Industries), and all samples were centrifuged within 2 h of collection. […] For ghrelin assay, 1 M HCl (100 µl/ml) was added to the plasma. All samples were stored at − 70 °C until analysis.

NG neurons [4] = test: Whole-cell voltage-clamp (patch-clamp) of NG neurons; type: cell-based, mouse; conditions: whole-cell voltage clamp -80 to 40 mV, 10 nM peptide, Ghsr- and Glp1r-expressing NG neurons, n = 10
Description: NG neurons were perfused in the bath solution (Composition in mmol L^−1: NaCl 126.2, KCl 3.1, MgCl2 2, CaCl2 2, HEPES 10, glucose 10; pH 7.39, osmolarity 320 mOsm) with 10 nM ghrelin or 10 nM GLP-1. Whole-cell recordings were performed using patch pipettes of 3.5–5 MΩ resistance backfilled with a solution (Composition in mmol L^−1: K gluconate 125, KCl 8, MgCl2 4, HEPES 10, ATP 2, GTP 0.4, Na2-creatine phosphate 5; pH 7.23, osmolarity 300 mOsm). After obtaining a giga-seal, membrane access resistance was monitored for 5–10 min until it became stable at 10 MΩ or less. Data were acquired from isolated vagal sensory neurons of mice in Axopatch 1D amplifier (Molecular Devices) filtered at 1 kHz. Signals were digitised in analogue-to-digital converter (Axon Digidata 1322A; Molecular Devices), and analysed on a computer running pCLAMP 10 software (Molecular Devices).
All neurons collected in retrograde tracing studies and used to assess calcium response and patch-clamp recording were picked up by the UnipicK + system (NeuroInDx) immediately after each measurement. […] In the retrograde tracer studies, percentage of stomach-innervating NG neurons expressing Ghsr or Glp1r were analysed. […]

Compound: CC[C@H](C)[C@H](NC(=O)[C@H](Cc1ccccc1)NC(=O)[C@H](CCC(=O)O)NC(=O)[C@H](CCCCN)NC(=O)[C@H](C)NC(=O)[C@H](C)NC(=O)[C@H](CCC(N)=O)NC(=O)CNC(=O)[C@H](CCC(=O)O)NC(=O)[C@H](CC(C)C)NC(=O)[C@H](Cc1ccc(O)cc1)NC(=O)[C@H](CO)NC(=O)[C@H](CO)NC(=O)[C@@H](NC(=O)[C@H](CC(=O)O)NC(=O)[C@H](CO)NC(=O)[C@@H](NC(=O)[C@H](Cc1ccccc1)NC(=O)[C@@H](NC(=O)CNC(=O)[C@H](CCC(=O)O)NC(=O)[C@H](C)NC(=O)[C@@H](N)Cc1c[nH]cn1)[C@@H](C)O)[C@@H](C)O)C(C)C)C(=O)N[C@@H](C)C(=O)N[C@@H](Cc1c[nH]c2ccccc12)C(=O)N[C@@H](CC(C)C)C(=O)N[C@H](C(=O)N[C@@H](CCCCN)C(=O)NCC(=O)N[C@@H](CCCNC(=N)N)C(N)=O)C(C)C [GLP-1, glucagon-like peptide 1]
- food intake, GLP-1 preadministration before ghrelin (mice; Glp1r-/- mice fed ad libitum): did not affect ghrelin-induced feeding
- feeding effect of the peptide administered second (mice; mice, two peptides in a 60-min interval, peptide given 60 min after the first peptide): exhibited its proper effect
- food intake, GLP-1 preadministration before ghrelin (mice; wild-type mice (of Glp1r-/-) fed ad libitum): abolished ghrelin-induced feeding
- food intake (rats; 8-h fasted rats, compared with saline, n = 8): significantly reduced food intake
- food intake (rats; rats fed ad libitum, dark phase (20:00-21:00), n = 6): suppressed feeding
- ghrelin-induced Fos in the ARC after GLP-1 preadministration ([1]; GLP-1 3 nmol i.p. 30 min before ghrelin 1.5 nmol i.p., n = 4): abolished ghrelin-induced Fos in the ARC
- Fos-positive neurons in left NG ([1]; GLP-1 3 nmol i.p. alone, n = 3): 70.5%
- Fos-positive neurons in right NG ([1]; GLP-1 3 nmol i.p. alone, n = 3): 71.0%
- Fos in the NTS ([1]; GLP-1 3 nmol i.p. alone, n = 4): induced Fos in the NTS
- calcium response, GLP-1 after ghrelin (NG neurons [2]; Glp1r+Ghsr+ neurons, 10 nM GLP-1 10 min after 10 nM ghrelin, n = 10): failed to evoke calcium response
- calcium response (NG neurons [2]; Glp1r+Ghsr+ neurons, 10 nM GLP-1 given first, n = 10): evoked calcium response
- calcium response (NG neurons [2]; Glp1r+Ghsr- neurons, 10 nM GLP-1): evoked calcium response
- calcium response (NG neurons [2]; Glp1r-Ghsr- neurons, 10 nM GLP-1): not
- gastric vagal afferent activity (gastric vagal afferent; ghrelin 1.5 nmol or GLP-1 1 nmol, peptide given first): enhanced it
- gastric vagal afferent activity, second peptide (gastric vagal afferent; peptide given 30 min after the other peptide (ghrelin 1.5 nmol, GLP-1 1 nmol)): GLP-1-enhanced activity was not observed
- time at which plasma concentration returned to the base [3]: 30 min
- current in I/V relationship (NG neurons [4]): generated depolarizing current
